IC50 data for 27 compounds are collected here from US20250042891A1, “Compound containing structure of a heteroaromatic ring, pharmaceutical composition thereof and application thereof” (SHANGHAI YINGLI PHARMACEUTICAL CO., LTD, priority 2023, published 2025).

SMILES strings stand for the structures. pIC50: −log10 of the molar value. Some results are limits rather than exact numbers.

Test [1] has as its target PARG (389-976) (Homo sapiens (Human), UniProt Q86W56). Kind of test: PARG enzyme inhibition assay (TR-FRET). Format: biochemical. The protocol:
PARG in vitro assays were conducted in standard 384-well plates in a total volume of 15 μL. 5 μL of PARG (389-976) (manufactured by Chempartner Chemical Co., Ltd.) in buffer (50 mM Tris-HCL 7.5, 30 mM KCl, 1 mM EDTA, 3 mM DTT, tween-20 0.01%, BSA 0.025%) was added at a final concentration of 1.5 pM to the 384-well plates containing the compounds to be tested, which was incubated for 30 min at room temperature. To the above mixture was added 5 μL Bio PARylated His-TEV-PARP1(2-1014) substrate (manufactured by Chempartner Chemical Co., Ltd.) at a final concentration of 12 nM, after addition, the resulting mixture was incubated for 30 minutes at room temperature. Then to the mixture was added detection reagent (5 μL) which was buffered with 50 mM Tris-HCL 7.5, 30 mM KCl, 1 mM EDTA, 3 mM DTT, tween-20 0.01%, BSA 0.025%, and consisted of 3 μM of compound PDD00017273 and 9 nM Mab anti-6HIS XL665 (Cisbio: 61HISXLA) and 0.9 nM streptavidin affinity terbium cryptate (Cisbio:610SATLA), all at 3× working concentrations (final concentrations of 1 μM, 3 nM and 0.3 nM, respectively). After 120 min incubation in the dark at room temperature, TR-FRET signals were measured at Ex 340 and Em 665 and Em 615. The ratio for each well was calculated as Em 665/Em 615 and the compound inhibition rate was calculated based on the obtained data.

The test system of test [2] is NCI-H460. The test is described as follows: CTG assay for proliferation inhibition of cell lines. Format: cell-based. Particulars: NCI-H460, 7 days, CellTiter Glo. Here is the method: (§1) The assay was conducted on either 384-well plates or 96-well plates. The procedures are as follows:
(§2) The cell suspensions were added to 384- or 96-well plates (384-well plate: 50 μL; 96-well plate: 100 μL) except for peripheral wells. The plates were incubated in a carbon dioxide incubator overnight, HCC1395, HCC1428 and NCI-H460 were placed in a carbon dioxide incubator of 5%, […] overnight. Prepared compounds (10 concentration gradients by serial 3-fold dilution) were added to the wells using the HPD300 micro-dosing instrument. The cell plates were incubated in a carbon dioxide incubator for 7 days. HCC1395, HCC1428 and NCI-H460 were incubated in a 5%, 37° CO2 incubator. On the day of plate measurement, 384- or 96-well plates were first equilibrated at room temperature for 10-30 minutes, then to the 384- or 96-well plate was added CellTiter Glo reagent (384-well plate: 25 μL; 96-well plate: 100 μL), shaken for 10 minutes away from light, and incubated for 10 minutes. The incubated plates were placed into Victor NIVO reader plates, and the pharmacodynamic inhibition curves were plotted and IC50 values were calculated using XLFit.

Test [3] has as its system HCC1428. The test is described as above. It counts as cell-based. The note with it: HCC1428, 7 days, CellTiter Glo. Here is the method:
as §1, §2
For orientation: In ATP-based viability assays light output follows the ATP content of the culture.

Test [4] deals with HCC1395. Described as above. Format: cell-based. The note with it: HCC1395, 7 days, CellTiter Glo. Here is the method: as §1, §2
Where [5] appears, read: class symbol, Bio PARylated His-TEV-PARP1 substrate, TR-FRET.
[6] abbreviates: numeric value in parentheses under the class symbol.

PARG (389-976), sequence (Q86W56 389-976): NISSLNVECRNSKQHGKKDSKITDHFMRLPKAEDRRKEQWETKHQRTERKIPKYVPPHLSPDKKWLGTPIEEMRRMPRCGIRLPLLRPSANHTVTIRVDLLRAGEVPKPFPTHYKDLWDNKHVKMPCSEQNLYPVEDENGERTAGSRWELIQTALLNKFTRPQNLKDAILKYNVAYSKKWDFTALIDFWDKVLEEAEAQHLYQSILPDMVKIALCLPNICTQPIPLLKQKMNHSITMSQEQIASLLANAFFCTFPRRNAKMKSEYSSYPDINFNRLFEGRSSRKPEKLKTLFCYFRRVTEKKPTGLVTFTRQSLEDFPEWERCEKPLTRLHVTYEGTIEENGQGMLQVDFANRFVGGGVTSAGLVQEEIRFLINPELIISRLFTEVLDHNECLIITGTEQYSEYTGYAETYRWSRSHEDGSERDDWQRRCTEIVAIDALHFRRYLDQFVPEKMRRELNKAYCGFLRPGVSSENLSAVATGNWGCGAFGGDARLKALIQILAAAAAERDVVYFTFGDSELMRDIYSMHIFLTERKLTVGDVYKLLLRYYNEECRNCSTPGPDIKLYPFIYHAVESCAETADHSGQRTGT

The compound `Cn1nc(-c2nnc(C(F)F)s2)c2cc(S(=O)(=O)NC3(C#N)CC3)cc(C3=CCN(S(=O)(=O)C4CCC4)CC3)c21` [Compound 12] showed a pIC50 in test [1] (setting [5]) of over 9.00. Besides, the IC50 in test [2] (Homo sapiens, 168 h) stood at 0.148 µM; in test [3] (Homo sapiens, 168 h) it was 0.151 µM; in test [4] (Homo sapiens, 168 h) it was 0.169 µM.
In the case of `CC(C)[S+]([O-])N1CC=C(c2cc(S(=O)(=O)NC3(C#N)CC3)cc3c(-c4nnc(C(F)F)s4)nn(C)c23)CC1` (stereo not drawn) [Compound 25], the pIC50 in test [1] (setting [5]) is over 9.00; in test [1] (setting [6]), 9.47. The IC50 in test [2] was 0.185 µM; in test [3] it was 0.152 µM; in test [4], 0.206 µM.
`CC(C)S(=O)(=O)N1CC=C(c2cc(S(=O)(=O)NC3(C#N)CC3)cc3c(-c4nnc(C(F)(F)F)s4)nn(CC(F)(F)F)c23)CC1` [Compound 58]: the pIC50 in test [1] (setting [5]) was 8.00 to 9.00. For the same compound, the IC50 in test [2] is 0.216 µM; in test [3], 0.201 µM; in test [4], 0.253 µM.
Taken in the same sequence, the figures for `Cn1nc(-c2nnc(C(F)F)s2)c2cc(S(=O)(=O)NC3(C#N)CC3)cc(C3=CCN(S(=O)(=O)C4COC4)CC3)c21` [Compound 22] were over 9.00, 0.714 µM, 1.09 µM and 0.605 µM.
The compound `CC(C)S(=O)(=O)N1CC=C(c2cc(S(=O)(=O)NC3(C#N)CC3)cc3c(-c4nnc(C(F)(F)F)s4)nn(CC4COC4)c23)CC1` [Compound 60] showed a pIC50 in test [1] (setting [5]) of 8.00 to 9.00. The IC50 amounted to 0.115 µM in test [2] (Homo sapiens, 168 h); 0.0778 µM in test [3] (Homo sapiens, 168 h); 0.181 µM in test [4] (Homo sapiens, 168 h).
For the compound `CC(C)S(=O)(=O)N1CC=C(c2cc(S(=O)(=O)NC3(C#N)CC3)cc3c(-c4nnc(C(F)(F)F)s4)nn(C)c23)CC1` [Compound 15], the pIC50 in test [1] (setting [5]) is over 9.00. In addition, the results for the IC50 in test [2], in test [3] and in test [4] were 0.0561 µM, 0.117 µM and 0.0955 µM, respectively.
As for `CC(C)S(=O)(=O)N1CC=C(c2cc(S(=O)(=O)NC3(C)CC3)cc3c(-c4nnc(C(F)F)s4)nn(C)c23)CC1` [Compound 19], the figures for the pIC50 in test [1] (setting [5]) and in test [1] (setting [6]) were over 9.00 and 9.92, respectively. The IC50 in test [2] was 0.0414 µM; in test [3], 0.196 µM; in test [4], 0.0532 µM.
`CC(C)S(=N)(=O)N1CC=C(c2cc(S(=O)(=O)NC3(C#N)CC3)cc3c(-c4nnc(C(F)F)s4)nn(C)c23)CC1` (stereo not drawn) [Compound 33] gave a pIC50 in test [1] (setting [5]) of over 9.00. Besides, the IC50 is 0.5 µM in test [2], 0.616 µM in test [3] and 0.691 µM in test [4].
For `Cn1nc(-c2nnc(C(F)F)s2)c2cc(S(=O)(=O)NC3(C#N)CC3)cc(C3=CCN(S(=O)(=O)C4CCNCC4)CC3)c21` [Compound 39], in test [1] (setting [5]), the pIC50 is over 9.00. Also, the values for the IC50 in test [2], in test [3] and in test [4] were 0.429 µM, 0.369 µM and 0.827 µM, respectively.
As to `CC(C)[S+]([O-])C1CC=C(c2cc(S(=O)(=O)NC3(C#N)CC3)cc3c(-c4nnc(C(F)F)s4)nn(C)c23)CC1` (stereo not drawn) [Compound 30], the results for the pIC50 in test [1] (setting [5]) and in test [1] (setting [6]) were over 9.00 and 9.21, respectively. For the same compound, the IC50 in test [2] was found to be 0.656 µM; in test [3], 0.45 µM; in test [4], 0.787 µM.
On to `CC(C)S(=O)(=O)c1ccc(-c2cc(S(=O)(=O)NC3(C#N)CC3)cc3c(-c4nnc(C(F)F)s4)nn(C)c23)cn1` [Compound 24], for which the pIC50 in test [1] (setting [5]) is over 9.00. For the same compound, the IC50 stood at 0.493 µM in test [2], 0.578 µM in test [3] and 0.65 µM in test [4].
For the compound `CC(C)S(=O)(=O)N1CC=C(c2cc(S(=O)(=O)NC3(C#N)CC3)cc3c(-c4nnc(C(F)F)s4)n(CC4CC4)nc23)CC1` [Compound 44], the figures for the IC50 in test [2] and in test [4] were 1.07 µM and 1.05 µM, respectively.
For the compound `CC(C)S(=O)(=O)N1CC=C(c2cc(S(=O)(=O)NC3(C#N)CC3)cc3c(-c4nnc(C(F)(F)F)s4)nn(CC4CNC4)c23)CC1` [Compound 61], the pIC50 in test [1] (setting [5]) was over 9.00. For the same compound, the IC50 came to 1.68 µM in test [3] and 1.63 µM in test [4].
Take `CC(C)S(=O)(=O)N1CCC(c2cc(S(=O)(=O)NC3(C#N)CC3)cc3c(-c4nnc(C(F)(F)F)s4)nn(C)c23)=C(CO)C1` [Compound 73]: the pIC50 in test [1] (setting [5]) is over 9.00. Besides, the IC50 in test [3] came out at 0.0576 µM; in test [4], 0.0462 µM.
`CC(C)S(=O)(=O)N1CC=C(c2cc(S(=O)(=O)NC3(C#N)CC3)cc3c(-c4nnc(C(F)(F)F)s4)nn(Cc4ccncc4)c23)CC1` [Compound 59]: in test [1] (setting [5]), the pIC50 was 8.00 to 9.00. Also, the IC50 in test [2] (Homo sapiens, 168 h) was 0.27 µM; in test [4] (Homo sapiens, 168 h), 0.357 µM.
`CN(C)S(=O)(=O)N1CC=C(c2cc(S(=O)(=O)NC3(C#N)CC3)cc3c(-c4nnc(C(F)F)s4)nn(C)c23)CC1` [Compound 32]: the pIC50 in test [1] (setting [5]) was 8.00 to 9.00; in test [1] (setting [6]), 8.99. Besides, the IC50 is 0.21 µM in test [2], 0.232 µM in test [3] and 0.177 µM in test [4].
Take `CC(C)S(=O)(=O)N1CCC(c2cc(S(=O)(=O)NC3(C#N)CC3)cc3c(-c4nnc(C(F)F)s4)nn(C)c23)=C(C=O)C1` [Compound 70]: the pIC50 in test [1] (setting [5]) is over 9.00. Also, the IC50 in test [3] was found to be 0.343 µM; in test [4] it was 0.27 µM.
As to `COCC(C)S(=O)(=O)N1CC=C(c2cc(S(=O)(=O)NC3(C#N)CC3)cc3c(-c4nnc(C(F)F)s4)nn(C)c23)CC1` (stereo not drawn) [Compound 23], the pIC50 in test [1] (setting [5]) was over 9.00. Besides, the IC50 in test [2] stood at 0.124 µM; in test [3], 0.466 µM; in test [4], 0.183 µM.
Taken in the same sequence, the figures for `CC(C)S(=O)(=O)N1CCC2(c3cc(S(=O)(=O)NC4(C#N)CC4)cc4c(-c5nnc(C(F)F)s5)nn(C)c34)OC2C1` (stereo not drawn) [Compound 38] were over 9.00, 0.366 µM, 0.4 µM and 0.432 µM.
`CC(C)S(=O)(=O)N1Cc2cn(-c3cc(S(=O)(=O)NC4(C#N)CC4)cc4c(-c5nnc(C(F)F)s5)nn(C)c34)nc2C1` [Compound 52] had a pIC50 in test [1] (setting [5]) of 8.00 to 9.00. For the same compound, the results for the half-inhibitory concentration (IC50) in test [3] and in test [4] were 1.06 µM and 1.38 µM, respectively.
In turn, `CC(C)S(=O)(=O)N1CC=C(c2cc(S(=O)(=O)NC3(C#N)CC3)cc3c(-c4noc(C(F)(F)F)n4)nn(C)c23)CC1` [Compound 53] gave a negative logarithm of the IC50 (pIC50) in test [1] (setting [5]) of over 9.00. Further, the results for the IC50 in test [3] and in test [4] were 0.207 µM and 0.392 µM, respectively.
`CC(C)S(=O)(=O)N1CCC(c2cc(S(=O)(=O)NC3(C#N)CC3)cc3c(-c4nnc(C(F)(F)F)s4)nn(C)c23)=C(C(N)=O)C1` [Compound 55] gave a pIC50 in test [1] (setting [5]) of over 9.00. Besides, the values for the IC50 in test [3] and in test [4] were 0.208 µM and 0.836 µM, respectively.
Taken in the same sequence, the figures for `CC(C)S(=O)(=O)N1CCN(c2c(F)c(S(=O)(=O)NC3(C#N)CC3)cc3c(-c4nnc(C(F)(F)F)s4)nn(C)c23)CC1` [Compound 56] were over 9.00, 0.0472 µM and 0.0475 µM.
Consider `CC(C)S(=O)(=O)N1CC=C(c2cc(S(=O)(=O)NC3(C#N)CC3)cc3c(-c4nnc(C(F)F)s4)nn(C)c23)C(F)C1` (stereo not drawn) [Compound 69], for which, in test [1] (setting [5]), the pIC50 is over 9.00. Moreover, the figures for the IC50 in test [2] and in test [4] were 0.292 µM and 0.296 µM, respectively.
For the compound `CC(C)S(=O)(=O)N1CC=C(c2cc(S(=O)(=O)NC3(C#N)CC3)cc3c(-c4nnc(C(F)F)s4)nn(CCN(C)C)c23)CC1` [Compound 26], the pIC50 in test [1] (setting [5]) is over 9.00; in test [1] (setting [6]), 9.80. Also, the IC50 was 0.139 µM in test [2] and 0.0865 µM in test [3].
Take `CC(C)S(=O)(=O)N1CCC(c2cc(S(=O)(=O)NC3(C#N)CC3)cc3c(-c4nnc(C(F)(F)F)s4)nn(C)c23)=C(CN(C)C)C1` [Compound 74]: the pIC50 in test [1] (setting [5]) was 8.00 to 9.00. The IC50 in test [3] worked out at 0.0621 µM; in test [4] it was 0.156 µM.
In test [1] (setting [5]), `CC(C)[S+]([O-])c1ccc(-c2cc(S(=O)(=O)NC3(C#N)CC3)cc3c(-c4nnc(C(F)(F)F)s4)nn(C)c23)nc1` (stereo not drawn) [Compound 48] gave a pIC50 of 7.00 to 8.00. Besides, the IC50 in test [2] is 2.05 µM; in test [4], 2.04 µM.

In general, pIC50 refers to the IC50 on a negative log10 scale, so that one unit is a factor of ten. The IC50 is the concentration that inhibits the measured activity by half.
